Measured values as given in patent US9260435B2, “Substituted imidazopyrazines as Akt kinase inhibitors” (Bayer Intellectual Property GmbH, priority 2012, dated 2016).

Tests used:
p-4E-BP1 at T70 = assay: Cellular p-4E-BP1-T70 assay in KPL-4 cells; format: cell-based; settings: Homo sapiens, KPL4; KPL-4 breast tumour cell line, 2 hours treatment; read-out: P4EBP1-T70 median IC50
Experimental: The molecular mechanism of action was investigated in a set of experiments to assess the inhibition of the PI3K-AKT-mTOR pathway in responsive cell lines such as KPL-4 breast tumour cell line (PIK3CA^H1047R, HER2^O/E and hormone independent). The phospho-substrates of PI3K-AKT-mTOR axis were used as the readouts to reflect pathway inhibition. Cells were seeded at 60-80% confluency per well in 96-well cell culture plates. After overnight incubation at 37° C. 5% CO2, cells were treated with compounds and vehicle at 37° C. for 2 hours. Thereafter, cells were lysed in 150 μl lysis buffer and the levels of phospho-AKT at T308 and S473 and p-4E-BP1 at T70 sites were determined with the corresponding AlphaScreen® SureFire® assay kits (Perkin Elmer: 4E-BP1 Assay Kit Cat # TRG4E2S10K; Akt 1/2/3 p-Ser 473 #TGRA4S500 and Akt 1/2/3 p-Thr 308 #TGRA3S500 as well as IgG detection Kit #6760617M) as described in the manuals. All measurements where at least done in duplicates and confirmed by independent repetition. Alternatively pAKT-S473 was measured using the “Akt Duplex” of the MULTI-SPOT® Assay System (Fa. Meso Scale Discovery, Cat# N41100B-1) following manufacturers instructions. Each assay used 20 μg of protein extract and measured total AKT and p-AKT content simultaneously in one well. All measurements where at least done in duplicates and confirmed by independent repetition. Values for P-AKT are expressed as percentage of P-AKT level compared to total-AKT content of the extracts.

[1] = test system: KPL-4 breast cancer cell line; assay: Tumor cell proliferation assay (CellTiter-Glo, 72 h), KPL-4; format: cell-based; settings: Homo sapiens, KPL4, 72 h drug exposure
Experimental: (§1) Biological Assay 4.0: Tumor Cell Proliferation Assays
(§2) Compounds were tested in a cell-based assay that measures the capacity of the compounds to inhibit tumour cell proliferation following a 72 h drug exposure. Cell viability is determined using CellTiter-Glow® (CTG, Promega, cat# G7571/2/3). The CellTiter-Glo® Luminescent Cell Viability Assay is a homogeneous method to determine the number of viable cells in culture. Detection is based on using the luciferase reaction to measure the amount of ATP from viable cells. The amount of ATP in cells correlates with cell viability. Within minutes after a loss of membrane integrity, cells lose the ability to synthesize ATP, and endogenous ATPases destroy any remaining ATP; thus the levels of ATP fall precipitously.
(§3) Cells were plated at 3000-5000 cells/well (depending on the cell lines) in 90 μL growth medium on MTPs (Corning; #3603, black plate, clear flat bottom). For each cell line assayed, cells were plated onto a separate plate for determination of […] at t=0 hour and t=72 hour time points. Following overnight incubation at 37° C., chemiluminescence values for the t=0 samples were determined after adding 10 μl medium and 100 μl CTG solution according to manufacture protocol. Plates for the t=72 hour time points were treated with compounds diluted into growth medium at ten times final concentration added in 10 μL to the cell culture plate. Cells were then incubated for 72 hours at 37° C. Chemiluminescence values for the t=72 hour samples were determined. […] Experiments were controlled using a reference compound as standard.
(§4) Preferred compounds of the present invention show in this assay an inhibition of cell growth of cell lines such as the KPL-4 breast cancer cell line and the MCF-7 breast tumour cell line ([…], hormone dependent) with a median IC50 of <10 μM, more preferably, median IC50≦1 μM.

phospho-AKT at S473 = assay: Cellular p-AKT1/2/3-S473 assay in KPL-4 cells; format: cell-based; settings: Homo sapiens, KPL4; KPL-4 breast tumour cell line, 2 hours treatment; read-out: pAKT-S743 median IC50
Experimental: The phospho-substrates of PI3K-AKT-mTOR axis were used as the readouts to reflect pathway inhibition. Cells were seeded at 60-80% confluency per well in 96-well cell culture plates. After overnight incubation at 37° C. 5% CO2, cells were treated with compounds and vehicle at 37° C. for 2 hours. […] All measurements where at least done in duplicates and confirmed by independent repetition. Alternatively pAKT-S473 was measured using the “Akt Duplex” of the MULTI-SPOT® Assay System (Fa. Meso Scale Discovery, Cat# N41100B-1) following manufacturers instructions. Each assay used 20 μg of protein extract and measured total AKT and p-AKT content simultaneously in one well. All measurements where at least done in duplicates and confirmed by independent repetition. Values for P-AKT are expressed as percentage of P-AKT level compared to total-AKT content of the extracts.

[2] = test system: MCF-7 breast tumour cell line; assay: Tumor cell proliferation assay (CellTiter-Glo, 72 h), MCF-7; format: cell-based; settings: Homo sapiens, MCF7, 72 h drug exposure
Experimental: as §1, §2, §3, §4

[3] = target: His-tagged human recombinant kinase full-length Akt2 (Homo sapiens (Human), UniProt P31751); assay: Akt2 kinase assay (TR-FRET); format: biochemical; settings: 10 μM ATP, read-out: Akt2, median IC50
Text: Biological Assay 2.0: Akt2 Kinase Assay
Akt2 inhibitory activity of compounds of the present invention was quantified employing the Akt2 TR-FRET assay as described in the following paragraphs.
(§5) His-tagged human recombinant kinase full-length Akt2 expressed in insect cells and activated by PDK1 was purchased from Invitrogen (part number PV 3975). As substrate for the kinase reaction the biotinylated peptide biotin-Ahx-KKLNRTLSFAEPG (C-terminus in amide form) was used which can be purchased e.g. from the company Biosynthan GmbH (Berlin-Buch, Germany).
(§6) For the assay 50 nl of a 100 fold concentrated solution of the test compound in DMSO was pipetted into a black low volume 384 well microtiter plate (Greiner Bio-One, Frickenhausen, Germany), 2 μl of a solution of Akt2 in assay buffer [50 mM TRIS/HCl pH 7.5, 5 mM MgCl2, 1 mM dithiothreitol, 0.02% (v/v) Triton X-100 (Sigma)] were added and the mixture was incubated for 15 min at 22° C. to allow prebinding of the test compounds to the enzyme before the start of the kinase reaction. Then the kinase reaction was started by the addition of 3 μl of a solution of adenosine-tri-phosphate (ATP, 16.7 μM=>final conc. in the 5 μl assay volume is 10 μM) and substrate (1.67 μM=>final conc. in the 5 μl assay volume is 1 μM) in assay buffer and the resulting mixture was incubated for a reaction time of 60 min at 22° C. The concentration of Akt2 in the assay was adjusted depending of the activity of the enzyme lot and was chosen appropriate to have the assay in the linear range, typical enzyme concentrations were in the range of about 0.2 ng/μl (final conc. in the 5 μl assay volume).
(§7) The reaction was stopped by the addition of 5 μl of a solution of HTRF detection reagents (200 nM streptavidine-XL665 [Cisbio] and 1.5 nM anti-phosho-Serine antibody [Millipore, cat. #35-001] and 0.75 nM LANCE Eu-W 1024 labeled anti-mouse IgG antibody [Perkin Elmer]) in an aqueous EDTA-solution (100 mM EDTA, 0.1% (w/v) bovine serum albumin in 50 mM HEPES/NaOH pH 7.5).
(§8) The resulting mixture was incubated 1 h at 22° C. to allow the binding of the biotinylated phosphorylated peptide to the streptavidine-XL665 and the antibodies. Subsequently the amount of phosphorylated substrate was evaluated by measurement of the resonance energy transfer from the anti-mouse-IgG-Eu-Chelate to the streptavidine-XL665. Therefore, the fluorescence emissions at 620 nm and 665 nm after excitation at 350 nm was measured in a TR-FRET reader, e.g. a Rubystar (BMG Labtechnologies, Offenburg, Germany) or a Viewlux (Perkin-Elmer). The ratio of the emissions at 665 nm and at […] was taken as the measure for the amount of phosphorylated substrate. The data were normalised (enzyme reaction without inhibitor=0% inhibition, all other assay components but no enzyme=100% inhibition).

[4] = target: His-tagged human recombinant kinase full-length Akt1 (Homo sapiens (Human), UniProt P31749); assay: Akt1 kinase assay (TR-FRET); format: biochemical; settings: 10 μM ATP, read-out: Akt1, median IC50
Text: Biological Assay 1.0: Akt1 Kinase Assay
Akt1 inhibitory activity of compounds of the present invention was quantified employing the Akt1 TR-FRET assay as described in the following paragraphs.
as §5, with “full-length Akt1” for “full-length Akt2”, “cells” for “cells and activated by PDK1”, “purchased form” for “purchased from”, “PV 3599).” for “PV 3975).”
as §6, with “Akt1” for “Akt2”, “0.05” for “0.2”
as §7
as §8, with “HTRF” for “TR-FRET”

Chain of His-tagged human recombinant kinase full-length Akt1 (P31749 whole entry): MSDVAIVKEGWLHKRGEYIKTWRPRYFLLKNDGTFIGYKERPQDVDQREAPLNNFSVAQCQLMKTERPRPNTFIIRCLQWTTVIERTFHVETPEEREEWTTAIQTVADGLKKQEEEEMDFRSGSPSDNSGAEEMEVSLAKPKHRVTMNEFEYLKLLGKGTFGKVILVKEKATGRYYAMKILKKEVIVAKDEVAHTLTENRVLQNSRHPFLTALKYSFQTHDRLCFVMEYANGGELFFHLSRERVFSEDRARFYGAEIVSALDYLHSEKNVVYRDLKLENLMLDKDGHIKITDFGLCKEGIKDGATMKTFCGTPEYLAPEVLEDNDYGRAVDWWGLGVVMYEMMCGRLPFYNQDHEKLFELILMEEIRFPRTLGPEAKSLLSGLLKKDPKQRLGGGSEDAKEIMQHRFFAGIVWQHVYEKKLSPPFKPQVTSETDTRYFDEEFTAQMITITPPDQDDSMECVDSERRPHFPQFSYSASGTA
Chain of His-tagged human recombinant kinase full-length Akt2 (P31751 whole entry): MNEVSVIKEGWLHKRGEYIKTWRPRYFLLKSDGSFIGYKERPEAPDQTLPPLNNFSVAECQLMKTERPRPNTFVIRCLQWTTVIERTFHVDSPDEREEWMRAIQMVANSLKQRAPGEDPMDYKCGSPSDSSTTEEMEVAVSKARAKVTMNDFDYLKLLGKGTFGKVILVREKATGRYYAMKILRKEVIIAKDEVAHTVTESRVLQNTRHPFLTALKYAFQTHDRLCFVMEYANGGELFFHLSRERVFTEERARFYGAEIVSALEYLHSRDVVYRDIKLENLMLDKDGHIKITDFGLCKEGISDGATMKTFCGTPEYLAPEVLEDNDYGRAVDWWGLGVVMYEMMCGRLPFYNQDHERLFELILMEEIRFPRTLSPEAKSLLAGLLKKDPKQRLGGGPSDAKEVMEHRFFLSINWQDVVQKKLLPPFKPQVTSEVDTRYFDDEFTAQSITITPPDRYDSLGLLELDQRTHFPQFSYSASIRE

SMILES | IC50 (p-4E-BP1 at T70) | inhibition at 1.67 µM ([1]; 1.67 μM, read-out: KPL-4 median inhibition at 1.67 μM (%)) | IC50 [1] | IC50 (phospho-AKT at S473) | inhibition at 1.67 µM ([2]; 1.67 μM, read-out: MCF-7 median inhibition at 1.67 μM (%)) | IC50 [2] | IC50 [3] | IC50 [4]
CCOC(=O)c1cn2c(-c3ccccc3)c(-c3ccc(C4(N)CCC4)cc3)nc2cn1 [Example 5, Ethyl 2-[4-(1-aminocyclobutyl)phenyl]-3-phenylimidazo[1,2-a]pyrazine-6-carboxylate] | 0.029 µM | 15.2% | 10 µM | 0.037 µM | 40.6% | 2.4 µM | – | –
NC1(c2ccc(-c3nc4c(O)nccn4c3-c3ccccc3)cc2)CCC1 [Example 1, 2-[4-(1-Aminocyclobutyl)phenyl]-3-phenylimidazo[1,2-a]pyrazin-8-ol] | – | – | – | – | – | – | 0.97 µM | 1.6 µM
